{"source": "patent US11896704B2", "about": "“Compounds useful for the treatment and/or care of the skin, hair, nails and/or mucous membranes” (LUBRIZOL ADVANCED MATERIALS, INC., priority 2017, dated 2024)", "key": {"[1]": {"test_system": "Phenion Full-Thickness Skin models", "assay": "Lipidomics profile (UHPLC-MS) in synchronized human full-thickness skin models", "assay_type": "cell-based", "details": "0.5 mg/ml, 48 hours of treatment, 7:30 h, one assay", "source_text": "Analysis of Lipidomics Profile in Synchronized Human Full-Thickness Skin Models. Lipidomic profile from human skin models can be assessed by measuring using an ultrahigh performance liquid chromatography-mass spectrometry (UHPLC-MS). The main objective of this experiment is to evaluate the lipidomic profile of synchronized human skin models after the treatment with the peptide […] (PEP-1, H-[SEQ ID. NO. 2]-NH2) in order to determine ceramide skin content and the PC-DHA/PC ratio. After arrival, the Phenion® Full-Thickness Skin models ([…]) are placed in Petri dishes (5 skin models per condition) according to the supplier's instructions in ALI medium ([…]). After 72 hours incubation at 37° C., 5% CO2, a synchronization protocol is initialized. For this purpose, skin models are subjected to two alternative cycles of 12 hours each at 37° C. in 5% CO2 humidified air (day mode) and 33° C. in 5% CO2 humidified air (night mode). Skin models are treated with the peptide […] (PEP-1, H-[SEQ ID. NO. 2]-NH2) at 0.5 mg/ml both in the above surface (50 μl of treatment) of the models and within the Petri-dish containing medium. Skin models treated with medium are used as a basal control condition. This treatment is […] hours in the same conditions. […] These values are calculated for one assay. […] These values are calculated for one assay."}, "[2]": {"test_system": "PER3 (period circadian clock 3)", "assay": "Clock gene expression in synchronized HEKa, real time PCR: PER3", "assay_type": "cell-based, Human", "details": "0.5 mg/ml", "description": "(§1) In Vitro Study of Clock Genes Expression in Synchronized Human Epidermal Keratinocytes from Adult (HEKa) Using Real Time PCR Arrays. HEKa cells (Life Technologies) are seeded at 3.0×10^5 cells/well in 12-well plates and incubated in culture medium, Keratinocyte growth medium supplemented with Mix C39016-CaCl2 solution (Promocell). For synchronization, cells were subjected to two alternative cycles of 12 hours each at 37° C. in 5% CO2 humidified air (day mode) and 33° C. in 5% CO2 humidified air (night mode). 12 hours after starting synchronization, cells are incubated with the synthetic peptide […] (PEP-1, H-[SEQ ID. NO. 2]-NH2) at 0.5 mg/ml in culture medium. Cells treated with medium alone are used as basal condition. At the end of synchronization, cell lysates are collected at two different times: 7:30 hour (early morning point) and 11:30 hour (midday point). […] After RNA elution, quantification and analysis of purity of RNA samples are performed with a nanodrop (Thermo). […] SYBR Green binds to double-stranded DNA molecules and emits fluorescence which is quantified, and the fluorescence intensity is proportional to the amount of the product in the PCR reaction. […] Fold change relative to the expression of the sample genes and reference genes is calculated using normalized expression (ΔΔ(Ct)) method using CFX Manager Software (BioRad)."}, "[3]": {"test_system": "CRY2 (cryptochrome circadian clock 2)", "assay": "Clock gene expression in synchronized HEKa, real time PCR: CRY2", "assay_type": "cell-based, Human", "details": "0.5 mg/ml", "description": "as §1"}, "[4]": {"test_system": "Human Dermal Fibroblasts (HDFa)", "assay": "Mitochondrial membrane potential in HDFa, JC-1 fluorescence assay", "assay_type": "cell-based", "details": "0.5 mg/ml, 16 hours", "description": "In Vitro Study of Increasing the Mitochondrial Membrane Potential in Human Dermal Fibroblasts (HDFa) by an Immunofluorescence Assay.\nHuman Dermal Fibroblasts from adult (HDFa, Life Technologies) are seeded at a density of 6,000 cells/well (3 wells per condition) in 96-well plates. Cells are seeded in culture medium M106 with Low Serum Growth Supplement (Life Technologies) during 24 hours at 37° C. in 5% CO2 humidified air. […]. Non-treated cells incubated with medium alone are used as basal conditions.\nAfter 16 hours of treatment, cells are used to quantify mitochondria membrane potential by using JC-1 mitochondrial membrane potential assay kit (Abcam) according to the manufacturer's protocol. Briefly, cells are incubated with a JC-1 working solution prepared with Supplemented Dilution Buffer in the presence of the treatment with the peptide at 0.5 mg/ml at 37° C. 5% CO2 for 30 minutes. […]\nCells are imaged and mitochondrial membrane potential is measured using Operetta® High Content Imaging System (PerkinElmer, Inc). […] Cell number is quantified by using Hoechst 33342 (ThermoFisher Scientific) staining, a cell-permeant nuclear counterstain that emits blue fluorescence at 460 nm when bound to dsDNA and is excited at 350 nm. For each image, intensity fluorescence from energized and depolarized cells is quantified and normalized against the number of nuclei. […]"}}}
{"substance": "H-Phe-Trp-Met-Lys-Arg-Lys-Arg-Val-Pro-NH2 (H-FWMKRKRVP-NH2) [PEP-1]", "values": [{"measurement": "Ceramides amount (%)", "setting": "[1]; relative to basal condition 7:30 h", "value": 147.6, "unit": "%"}, {"measurement": "Percentage PC-DHA/PC ratio (%)", "setting": "[1]; relative to basal conditions 7:30 h", "value": 120.2, "unit": "%"}, {"measurement": "Fold induction respect to Basal condition at 7:30 h (%)", "setting": "[2]", "value": 182.5, "unit": "%"}, {"measurement": "Fold induction respect to Basal condition at 7:30 h (%)", "setting": "[3]", "value": 132.5, "unit": "%"}, {"measurement": "Percentage of MMP relative to basal conditions (%)", "setting": "[4]", "value": 130.98, "unit": "%"}]}
